Results reported in publication PMC5951806, “Rapid labelling and covalent inhibition of intracellular native proteins using ligand-directed N-acyl-N-alkyl sulfonamide” (Nature Communications, 2018).

Columns and labels:
Experiment in all cases: TMT LC-MSMS of 11-labelled proteins
Format in all cases: cell-based
[1] = target: 60 kDa heat shock protein, mitochondrial (HSPD1) (Homo sapiens, UniProt P10809)
[2] = target: GTP-binding nuclear protein RAN (RAN) (Homo sapiens, UniProt P62826)
[3] = target: Protein disulfide-isomerase (P4HB) (Homo sapiens, UniProt P07237)
[4] = target: Serum albumin (ALB) (Homo sapiens, UniProt P02768)
[5] = sheet Merged, SKBR3 cells, 11 0.5 µM 3 h vs DMSO
[6] = sheet Merged, SKBR3 cells, 11 0.5 µM 3 h vs with PU-H71 10 µM
[7] = sheet Exp1, SKBR3 cells, 11 0.5 µM 3 h vs DMSO
[8] = sheet Exp1, SKBR3 cells, 11 0.5 µM 3 h vs with PU-H71 10 µM

Serum albumin (ALB), sequence (P02768 25-609): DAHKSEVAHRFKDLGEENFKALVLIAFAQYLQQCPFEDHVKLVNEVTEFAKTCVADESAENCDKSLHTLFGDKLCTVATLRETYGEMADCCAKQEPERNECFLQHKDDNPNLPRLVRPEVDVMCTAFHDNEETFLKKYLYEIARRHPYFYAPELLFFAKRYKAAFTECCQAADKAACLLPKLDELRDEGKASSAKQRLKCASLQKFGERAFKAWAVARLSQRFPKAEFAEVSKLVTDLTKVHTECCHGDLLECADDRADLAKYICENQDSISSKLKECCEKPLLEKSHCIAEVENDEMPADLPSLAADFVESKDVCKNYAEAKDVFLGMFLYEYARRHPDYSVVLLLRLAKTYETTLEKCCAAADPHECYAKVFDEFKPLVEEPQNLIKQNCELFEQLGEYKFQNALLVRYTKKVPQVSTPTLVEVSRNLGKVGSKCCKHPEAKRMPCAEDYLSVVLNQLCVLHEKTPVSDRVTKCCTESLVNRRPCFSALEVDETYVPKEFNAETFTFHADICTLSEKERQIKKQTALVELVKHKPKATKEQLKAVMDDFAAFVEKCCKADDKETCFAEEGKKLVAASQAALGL
60 kDa heat shock protein, mitochondrial (HSPD1), sequence (P10809 27-573): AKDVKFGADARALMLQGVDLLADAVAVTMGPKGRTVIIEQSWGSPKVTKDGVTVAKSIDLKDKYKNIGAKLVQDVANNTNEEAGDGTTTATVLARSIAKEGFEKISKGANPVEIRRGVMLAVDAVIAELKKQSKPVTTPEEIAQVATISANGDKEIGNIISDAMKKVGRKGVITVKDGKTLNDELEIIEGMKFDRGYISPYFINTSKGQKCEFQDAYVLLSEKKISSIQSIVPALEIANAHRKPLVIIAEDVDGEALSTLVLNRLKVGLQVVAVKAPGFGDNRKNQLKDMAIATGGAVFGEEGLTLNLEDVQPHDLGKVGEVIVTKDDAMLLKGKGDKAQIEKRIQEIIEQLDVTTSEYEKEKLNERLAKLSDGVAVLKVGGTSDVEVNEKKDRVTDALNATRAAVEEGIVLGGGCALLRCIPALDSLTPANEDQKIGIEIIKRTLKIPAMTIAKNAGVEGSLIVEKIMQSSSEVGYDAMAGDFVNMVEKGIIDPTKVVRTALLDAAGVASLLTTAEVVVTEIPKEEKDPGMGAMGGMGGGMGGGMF
Protein disulfide-isomerase (P4HB), sequence (P07237 18-508): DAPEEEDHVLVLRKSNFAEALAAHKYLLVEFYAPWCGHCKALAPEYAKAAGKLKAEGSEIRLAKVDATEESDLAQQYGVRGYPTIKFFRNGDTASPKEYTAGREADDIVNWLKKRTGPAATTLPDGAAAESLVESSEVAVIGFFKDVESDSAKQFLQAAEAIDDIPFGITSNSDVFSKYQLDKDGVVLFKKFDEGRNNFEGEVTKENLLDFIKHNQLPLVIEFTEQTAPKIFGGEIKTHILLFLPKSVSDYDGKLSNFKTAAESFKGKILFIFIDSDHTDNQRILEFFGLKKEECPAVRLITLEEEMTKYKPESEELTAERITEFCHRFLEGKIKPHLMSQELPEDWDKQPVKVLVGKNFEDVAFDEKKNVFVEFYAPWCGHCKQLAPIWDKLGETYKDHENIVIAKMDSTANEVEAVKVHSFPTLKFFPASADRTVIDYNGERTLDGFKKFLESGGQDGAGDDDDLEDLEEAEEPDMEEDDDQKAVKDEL

Structure (SMILES): CC(=O)Oc1ccc2c(c1)Oc1cc(OC(C)=O)ccc1C21OC(=O)c2cc(C(=O)NCCOCCOCCNC(=O)CCCC(=O)N(CC#N)S(=O)(=O)c3ccc(C(=O)NCCCn4c(Sc5cc6c(cc5I)OCO6)nc5c(N)ncnc54)cc3)ccc21 [compound 11]
- Abundance Ratio: (11) / (11 with PU-H71) ([1]; Exp3, HSPD1): 0.857
- Abundance Ratio: (11) / (DMSO) ([1]; Exp3, HSPD1): 2.057
- Abundances (Grouped): 11 ([1]; Exp3, HSPD1): 57.6
- Abundances (Grouped): 11 with PU-H71 ([1]; Exp3, HSPD1): 67.2
- Abundance Ratio: (11) / (11 with PU-H71) ([1]; sheet Exp2, HSPD1): 1.035
- Abundance Ratio: (11) / (DMSO) ([1]; sheet Exp2, HSPD1): 2.527
- Abundances (Grouped): 11 ([1]; sheet Exp2, HSPD1): 61.4
- Abundances (Grouped): 11 with PU-H71 ([1]; sheet Exp2, HSPD1): 59.3
- Abundance Ratio: (11) / (DMSO) [1, 5]: 2.28
- Abundance Ratio: (11) / (11 with PU-H71) [1, 6]: 0.942
- Abundance Ratio: (11) / (11 with PU-H71) ([2]; Exp3, RAN): 0.98
- Abundance Ratio: (11) / (DMSO) ([2]; Exp3, RAN): 2.764
- Abundances (Grouped): 11 ([2]; Exp3, RAN): 43.4
- Abundances (Grouped): 11 with PU-H71 ([2]; Exp3, RAN): 44.3
- Abundance Ratio: (11) / (DMSO) [2, 7]: 2.108
- Abundance Ratio: (11) / (11 with PU-H71) [2, 8]: 0.767
- Abundance Ratio: (11) / (11 with PU-H71) ([2]; sheet Exp2, RAN): 0.778
- Abundance Ratio: (11) / (DMSO) ([2]; sheet Exp2, RAN): 2.161
- Abundances (Grouped): 11 ([2]; sheet Exp2, RAN): 78
- Abundances (Grouped): 11 with PU-H71 ([2]; sheet Exp2, RAN): 100.3
- Abundance Ratio: (11) / (DMSO) [2, 5]: 2.599
- Abundance Ratio: (11) / (11 with PU-H71) [2, 6]: 0.946
- Abundance Ratio: (11) / (11 with PU-H71) ([3]; Exp3, P4HB): 0.934
- Abundance Ratio: (11) / (DMSO) ([3]; Exp3, P4HB): 3.442
- Abundances (Grouped): 11 ([3]; Exp3, P4HB): 191.7
- Abundances (Grouped): 11 with PU-H71 ([3]; Exp3, P4HB): 205.3
- Abundance Ratio: (11) / (DMSO) [3, 7]: 2.885
- Abundance Ratio: (11) / (11 with PU-H71) [3, 8]: 0.887
- Abundance Ratio: (11) / (11 with PU-H71) ([3]; sheet Exp2, P4HB): 0.87
- Abundance Ratio: (11) / (DMSO) ([3]; sheet Exp2, P4HB): 2.206
- Abundances (Grouped): 11 ([3]; sheet Exp2, P4HB): 186
- Abundances (Grouped): 11 with PU-H71 ([3]; sheet Exp2, P4HB): 213.9
- Abundance Ratio: (11) / (DMSO) [3, 5]: 2.274
- Abundance Ratio: (11) / (11 with PU-H71) [3, 6]: 0.896
- Abundance Ratio: (11) / (11 with PU-H71) ([4]; Exp3, ALB): 0.706
- Abundance Ratio: (11) / (DMSO) ([4]; Exp3, ALB): 1.152
- Abundances (Grouped): 11 ([4]; Exp3, ALB): 132.6
- Abundances (Grouped): 11 with PU-H71 ([4]; Exp3, ALB): 187.7
- Abundance Ratio: (11) / (DMSO) [4, 7]: 0.969
- Abundance Ratio: (11) / (11 with PU-H71) [4, 8]: 0.846
- Abundance Ratio: (11) / (11 with PU-H71) ([4]; sheet Exp2, ALB): 0.796
- Abundance Ratio: (11) / (DMSO) ([4]; sheet Exp2, ALB): 0.967
- Abundances (Grouped): 11 ([4]; sheet Exp2, ALB): 219.9
- Abundances (Grouped): 11 with PU-H71 ([4]; sheet Exp2, ALB): 276.3
- Abundance Ratio: (11) / (DMSO) [4, 5]: 0.969
- Abundance Ratio: (11) / (11 with PU-H71) [4, 6]: 0.846
